Data: patent publication US12577201B2, “Glutamine analogs” (Jacobio Pharmaceuticals Co., Ltd., priority 2020, dated 2026)

How the values were obtained:
[1] = Plasma stability, dog plasma; format: in vitro ADME; details: 1 μM, 37° C., 4 hours
Protocol: For metabolic stability, plasma from dog, monkey, swine and human were used. For stability, prodrugs (1 μM) were spiked in respective solutions and incubated in an orbital shaker at 37° C. 50 μL aliquots of the mixture in duplicate were removed, and the reaction quenched by addition of four times the volume of ice cold acetonitrile spiked with the internal standard (Dexamethasone 100 ng/mL). The samples were vortexed for 30 s and centrifuged at 15000 g for 5 min. 100 μL of the supernatant was diluted with 100 μL of water and transferred to the 0.6 mL plastic tubes on 96-well plate. Prodrug disappearance was monitored over time using a liquid chromatography and tandem mass spectrometry (LC-MS/MS).
For LC-MS/MS, prodrugs were analyzed on a ExionLC AD HPLC system coupled to REF Triple Quad 5500+ mass spectrometer with an ESI interface on an Phenomenex Kinetex 5 m C18 100A (2.1*50) mm UPLC column. The autosampler was temperature controlled and was operated at 4° C. The mobile phase used for the chromatographic separation was composed of acetonitrile/water containing 0.10% formic acid and will run at a flow rate of 0.6 mL/min for 3.5 min using gradient elution. The column effluent was monitored using […], equipped with an electrospray probe set in the positive ionization mode. Samples were introduced into the ionization source through a heated nebulized probe (400° C.). Disappearance of prodrugs will be measured from ratio of peak areas of analyte to IS.
For quantification of compound remaining, disappearance of prodrugs was measured from ratio of peak areas of analyte to IS.

[2] = tested on: MC38 tumor cells; assay: Anti-tumor efficacy in MC38 syngeneics in C57BL/6 mouse (Example 9); format: in vivo; details: C57BL/6, MC38, 2 μmol/kg S.C. QD; for T/C (%) / TGI (%) / TV (mm^3) (Mean ± SEM) D21 / TV (mm^3) at D21 (Mean ± SEM): D21; for TV (mm^3) at D21 (Mean ± SEM): Table 5
Protocol: Animal species: Mus musculus; Strain: C57BL/6; Age: 6-8 weeks; Sex: female.
The MC38 tumor cells were maintained in vitro in DMEM medium supplemented with 10% FBS at 37° C., 5% CO2. The cells growing in an exponential growth phase were harvested and counted for tumor inoculation. The culture MC38 were harvested, re-suspended in PBS containing 50% Matrigel at a density of 1×10^7 cells/mL. Each mouse was inoculated subcutaneously in the right flank region with 1×10^6 cells in 0.1 mL of PBS containing 50% Matrigel for tumor development.
The treatments were started when the mean tumor size reached 79-118 mm^3 (average tumor size 96 mm^3). Each group contained 8 tumor bearing mice. Group 1 was treated with Vehicle (10% DMSO+90% Saline), S.C., QD.
(§1) In vivo efficacy was examined according to absolute tumor growth inhibition (TGI) and the safety was evaluated according to weight change and survival in mice.
(§2) Statistical analysis of difference in tumor volume among the groups was performed using one-way ANOVA followed by individual comparisons using Games-Howell post-hoc test (equal variance not assumed). All data was analyzed using SPSS 22.0 software.

[3] = Stability in liver microsomes, mouse; format: in vitro ADME; details: 60 minutes, read-out: In vitro Clint
Protocol: (§3) For metabolic stability, microsomes from human, monkey, dog, rat and mouse were used. For stability, prodrugs (1 μM) were spiked in each microsomes matrix and incubated in an orbital shaker at 37° C. Aliquots of 50 μL were taken from the reaction solution at 0, 15, 30, 45 and 60 min. The reaction was stopped by the addition of 4 volumes of cold acetonitrile with IS (100 nM alprazolam, 200 nM labetalol, 200 nM caffeine and 2 μM ketoprofen). Samples were centrifuged at 3, 220 g for 40 minutes. Aliquot of 100 μL of the supernatant was mixed with 100 μL of ultra-pure H2O and then used for LC-MS/MS analysis.
(§4) For LC-MS/MS, prodrugs were analyzed on an API 4000 instrument from AB Inc (Canada) with an ESI interface coupled to Shimadzu LC system on an Waters XSelect HSS T3 C18, 2.5 m, 2.1×30 mm column.
(§5) For data analysis, peak areas were determined from extracted ion chromatograms. The slope value, k, was determined by linear regression of the natural logarithm of the remaining percentage of the parent drug vs. incubation time curve. The in vitro half-life (in vitro t1/2) was determined from the slope value: in vitro t1/2=−(0.693/k)
(§6) Conversion of the in vitro t1/2 (min) into the in vitro intrinsic clearance (in vitro CLint, in μL/min/mg protein) was done using the following equation (mean of duplicate determinations): […]

[4] = tested on: MC38 tumor cells; assay: Anti-tumor efficacy in MC38 model in CES1c -/- mouse (Example 10); format: in vivo; details: for TV (mm^3) (Mean ± SEM) D6 / TV (mm^3) (Mean ± SEM) D9 / TV (mm^3) (Mean ± SEM) D12 / TV (mm^3) (Mean ± SEM) D15 / TV (mm^3) (Mean ± SEM) D20 / TV (mm^3) (Mean ± SEM) D23 / T/C (%) / TGI (%) / TV (mm^3) (Mean ± SEM) D26: MC38, 2 μmol/kg S.C. QD; for T/C (%) / TGI (%) / TV (mm^3) (Mean ± SEM) D26 / TV (mm^3) at D26 (Mean ± SEM): D26; for TV (mm^3) at D26 (Mean ± SEM): Table 9, MC38, 2 μmol/kg S.C. QD
Protocol: Animal species: Mus musculus; Strain: C57BL/6-Ces1c^emISmoc; Age: 6-8 weeks; Sex: female. (Shanghai Model Organisms). The MC38 tumor cells were maintained in vitro in DMEM medium supplemented with 10% FBS at 37° C., 5% CO2. The cells growing in an exponential growth phase were harvested and counted for tumor inoculation. The culture MC38 were harvested, re-suspended in PBS containing 50% Matrigel at a density of 1×10^7 cells/mL. Each mouse was inoculated subcutaneously in the right flank region with 1×10^6 in 0.1 mL of PBS containing 50% Matrigel for tumor development.
The treatments were started when the mean tumor size reached 52-132 mm^3 (average tumor size 95 mm^3). Each group contained 5 tumor bearing mice. Group 1 was treated with Vehicle (10% DMSO+90% Saline), S.C., QD(Subcutaneous injection, quaque die).
as §1, §2

[5] = Stability in liver microsomes, human; format: in vitro ADME; details: 60 minutes, read-out: In vitro Clint
Protocol: as §3, §4, §5, §6

[6] = Body weight of C57BL/6 mice bearing MC38 tumors (Example 9); format: in vivo, Mus musculus; details: C57BL/6, MC38, 2 μmol/kg S.C. QD
Protocol: The treatments were started when the mean tumor size reached 79-118 mm^3 (average tumor size 96 mm^3). Each group contained 8 tumor bearing mice. Group 1 was treated with Vehicle (10% DMSO+90% Saline), S.C., QD. Group 2 was given treatments with reference compound A at 2 μmol/kg, S.C., QD. Group 3 was given treatments with compound 2 at 2 μmol/kg, S.C., QD.
as §1

Row | SMILES | plasma stability (compound remaining) [1] | TV (mm^3) (Mean ± SEM) D6 [2] | TV (mm^3) (Mean ± SEM) D10 [2] | TV (mm^3) (Mean ± SEM) D14 [2] | TV (mm^3) (Mean ± SEM) D18 [2] | T/C (%) [2] | TGI (%) [2] | TV (mm^3) (Mean ± SEM) D21 [2] | TV (mm^3) (Mean ± SEM) D25 [2] | TV (mm^3) (Mean ± SEM) D28 [2] | TV (mm^3) (Mean ± SEM) D31 [2] | TV (mm^3) at D21 (Mean ± SEM) [2] | microsomal CLint at 1 μM [3] | TV (mm^3) (Mean ± SEM) D6 [4] | TV (mm^3) (Mean ± SEM) D9 [4] | TV (mm^3) (Mean ± SEM) D12 [4] | TV (mm^3) (Mean ± SEM) D15 [4] | TV (mm^3) (Mean ± SEM) D20 [4] | TV (mm^3) (Mean ± SEM) D23 [4] | T/C (%) [4] | further results
1 | CO[C@@H](C)C(=O)N[C@@H](CCC(=O)C=[N+]=[N-])C(=O)OC(C)C [Compound 2, isopropyl (S)-6-diazo-2-((S)-2-methoxypropanamido)-5-oxohexanoate] | substantially intact | 96 ± 4 mm^3 | 141 ± 9 mm^3 | 140 ± 10 mm^3 | 180 ± 13 mm^3 | 9.5% | 90.5% | 263 ± 32 mm^3 | 381 ± 55 mm^3 | 496 ± 62 mm^3 | 617 ± 56 mm^3 | 263 ± 32 mm^3 | 67.1 µL/min/mg | 95 ± 11 mm^3 | 193 ± 20 mm^3 | 103 ± 15 mm^3 | 131 ± 21 mm^3 | 169 ± 19 mm^3 | 219 ± 21 mm^3 | 14.0% | TGI (%) [4]: 86.0%; TV (mm^3) (Mean ± SEM) D26 [4]: 313 ± 35 mm^3; TV (mm^3) at D26 (Mean ± SEM) [4]: 313 ± 35 mm^3; microsomal CLint at 1 μM [5]: 43.4 µL/min/mg; BW(g) (Mean ± SEM) Beginning (D6) [6]: 21.7 ± 0.2 g; BW(g) (Mean ± SEM) End (D21) [6]: 22.4 ± 0.2 g
2 | CC(=O)N[C@@H](Cc1c[nH]c2ccccc12)C(=O)N[C@@H](CCC(=O)C=[N+]=[N-])C(=O)OC(C)C [Reference compound A, reference compound] | substantially intact | 96 ± 4 mm^3 | 148 ± 6 mm^3 | 196 ± 25 mm^3 | 297 ± 48 mm^3 | 14.4% | 85.6% | 399 ± 74 mm^3 | 680 ± 143 mm^3 | 928 ± 153 mm^3 | 1358 ± 213 mm^3 | 399 ± 74 mm^3 | 153 µL/min/mg | 95 ± 6 mm^3 | 275 ± 33 mm^3 | 147 ± 5 mm^3 | 195 ± 23 mm^3 | 196 ± 33 mm^3 | 183 ± 33 mm^3 | 12.3% | TGI (%) [4]: 87.7%; TV (mm^3) (Mean ± SEM) D26 [4]: 274 ± 81 mm^3; TV (mm^3) at D26 (Mean ± SEM) [4]: 274 ± 81 mm^3; microsomal CLint at 1 μM [5]: 119 µL/min/mg; BW(g) (Mean ± SEM) Beginning (D6) [6]: 21.9 ± 0.3 g; BW Change (%) ([6]; D6 to D21): +2.8%; BW(g) (Mean ± SEM) End (D21) [6]: 22.5 ± 0.4 g
